Patent US10183038B2, “Method for preventing and treating renal disease” (L & F Research LLC, priority 2010, dated 2019)

Assays:
LPS induced proteinuria = LPS induced proteinuria in mice; assay type: in vivo; settings: 4000 mg/kg intravenously 1 hour prior to LPS, urines 30 hours after first LPS injection, p<0.05 LPS+CD versus LPS
Procedure: FIG. 6A-FIG. 6B: Depicts that CD partially prevents LPS induced podocyte damage. FIG. 6A: Depicts the results when HPBCD was administered intravenously (4000 mg/kg) 1 hour prior to LPS injection (200 ug/20 g mouse intraperitoneally). Urines were collected […] after LPS injection and analyzed for albumin/creatinine ratio by ELISA. p<0.05 when comparing LPS+CD versus LPS. FIG. 6B: Depicts that CD prevented LPS induction of MyD88 in isolated glomeruli in vivo. Referring to FIG. 6A, the antiproteinuric effects of CD were tested in an established experimental model of LPS induced proteinuria. Three mice per group were utilized. Mice were left untreated (CTRL), or received one injection of 4000 mg/kg Hydroxypropyl-beta-cyclodextrin (CD), or two injections of 200 μg LPS 24 hours apart (LPS), or received 4000 mg/kg of CD 1 hour prior to LPS treatment (LPS+CD). Urines were collected at 30 hours after the first LPS injection and analyzed for albumin and creatinine content by ELISA. Albuminuria was determined as the ratio between albumin and creatinine (μg/mg).

[1] = tested on: human podocytes exposed to DM w DN sera; assay: Human podocytes exposed to sera of diabetic patients with DN (blebbing, cholesterol, apoptosis); assay type: cell-based; settings: normal human podocytes exposed to sera of patients with diabetic nephropathy; cholesterol depletion with Methyl-beta-cyclodextrin
Procedure: DN is a chronic progressive disease that affects a sizable subset of patients with diabetes. Despite the identification of multiple risk factors that contribute to the development of DN, it has remained difficult to identify the subset of patients with diabetes at risk for DN. This led to testing to determine if an in vitro prediction assay could be developed. For this purpose, the following experiments were conducted. Non-identifiable samples of patient sera were obtained. Samples consisted of serum collected from 10 patients with diabetes and macroalbuminuria (DM w DN) and 10 diabetic normoalbuminuric patients (DM w/o DN) well matched for HgA1C (7.9%), total cholesterol levels and the duration of diabetes. Normal human sera (NHS) from 10 age and sex matched healthy subjects were also utilized as controls. Differentiated human podocytes were serum starved for 24 hours and then exposed to 4% serum of NHS, DM w/o DN, DM w DN for 24 hours. […] Total cholesterol was also determined with an enzymatic reaction. Total cholesterol was increased in podocytes treated with DM w DN when compared to DM w/o DN and NHS (FIG. 3D, *p<0.05), a phenomenon that was prevented by CD (FIG. 3D, #p<0.05). Cell blebbing was predictive of DN, as sera collected from patients before progressing to DN at the time they were normoalbuminuric already caused cell blebbing (FIG. 3E).

[2] = tested on: patients at high risk for recurrent FSGS after transplantation; assay: Clinical outcome after kidney transplantation in patients at high risk for recurrent FSGS, rituximab vs historical controls; assay type: in vivo, human
SMPDL-3b [3] = assay: SMPDL-3b expression in podocytes cultured with FSGS patient sera; assay type: cell-based, human; settings: recurrent FSGS (FIG. 2)
Procedure: FIG. 2A: Depicts low- and high-power images of immunoperoxidase staining for SMPDL-3b and synaptopodin in post-reperfusion biopsies of patients with recurrent (REC) and non-recurrent (NON-REC) FSGS. Arrows point to podocytes. Scale bars: 25 μm top and 15 μm bottom. […] All kidney biopsies were obtained prior to initiation of treatment with rituximab. An average of 13±4 glomeruli per patient were analyzed. *p<0.05, unpaired Student's t test. Data are mean±s.d. […] Data are mean±s.d. *p<0.05 and **p<0.01 by one-way ANOVA. […] Data are mean±s.d. *p<0.05 and **p<0.01 by one-way ANOVA. […] Data are mean±s.d. *p<0.05 and **p<0.01 by one-way ANOVA. […] Data are mean±s.d. *p<0.05 and **p<0.01 by one-way ANOVA.
(A) Low- and high-power images of immunoperoxidase staining for SMPDL-3b and synaptopodin in post-reperfusion biopsies of patients with recurrent (REC) and non-recurrent (NON-REC) FSGS. Arrows point to podocytes. […] All kidney biopsies were obtained prior to initiation of treatment with rituximab. […] (G) ASMase activity per μg of total lysate protein, as evaluated by ELISA.

SMPDL-3B [4] = biological target: T1, SMPDL-3B (Homo sapiens, UniProt Q92485); settings: cited from earlier work
T1 sequence (Q92485 19-455): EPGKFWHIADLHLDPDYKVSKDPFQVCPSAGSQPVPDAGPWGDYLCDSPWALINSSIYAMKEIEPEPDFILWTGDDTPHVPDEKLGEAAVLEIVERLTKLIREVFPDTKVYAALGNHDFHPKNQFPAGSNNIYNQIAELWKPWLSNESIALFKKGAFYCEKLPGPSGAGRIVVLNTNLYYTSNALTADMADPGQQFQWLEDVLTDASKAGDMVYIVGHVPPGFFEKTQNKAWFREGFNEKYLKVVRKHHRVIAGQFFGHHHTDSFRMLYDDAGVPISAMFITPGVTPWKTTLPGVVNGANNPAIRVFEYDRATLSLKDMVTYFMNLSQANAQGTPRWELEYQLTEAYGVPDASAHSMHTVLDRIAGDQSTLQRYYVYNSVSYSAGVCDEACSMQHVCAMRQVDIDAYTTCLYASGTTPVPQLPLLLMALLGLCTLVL

CD19+ cells = assay: CD19 count in transplanted FSGS patients after rituximab; assay type: in vivo, human; settings: N = 27
Source text: W=white, B=black, M=male, F=female, ESRD=end stage renal disease, LD=living donor, DD=deceased donor. ΔeGFR: variation of eGFR. *p<0.05.

[5] = number of patients (%), N = 27, one dose of rituximab (375 mg/m^2) within 24 hours of transplant

For `CC(O)COC[C@H]1O[C@@H]2O[C@H]3[C@H](O)[C@@H](O)[C@@H](O[C@H]4[C@H](O)[C@@H](O)[C@@H](O[C@H]5[C@H](O)[C@@H](O)[C@@H](O[C@H]6[C@H](O)[C@@H](O)[C@@H](O[C@H]7[C@H](O)[C@@H](O)[C@@H](O[C@H]8[C@H](O)[C@@H](O)[C@@H](O[C@H]1[C@H](O)[C@H]2O)O[C@@H]8COCC(C)O)O[C@@H]7COCC(C)O)O[C@@H]6COCC(C)O)O[C@@H]5COCC(C)O)O[C@@H]4COCC(C)O)O[C@@H]3COCC(C)O` (stereo partly drawn) [Hydroxypropyl-beta-cyclodextrin], the “LPS induced proteinuria (albumin/creatinine ratio by ELISA)” value (LPS induced proteinuria) was “protects from Lipopolysaccharide (LPS) induced proteinuria”.
In the case of Methyl-beta-cyclodextrin, the cell blebbing [1] was “prevents”.
With rituximab the Graft survival ([2]; 6 months, N = 27) was 100%, the Graft survival ([2]; 12 months, N = 27) was 95.8% and the “difference in graft survival between groups” value ([2]; at 6 and 12 months, rituximab group vs control group) was “no significant difference”. The “incidence of recurrent nephrotic range proteinuria and need for plasmapheresis” value ([2]; between day 3 and 30 after transplantation, rituximab group vs control group) was “significantly lower”, the “Nephrotic proteinuria w/i 1 Mo” value [2, 5] was 7 (26%) and the “Plasmapheresis w/I 1 Mo” value [2, 5] was 8 (30%). The “downregulation of SMPDL-3b” value (SMPDL-3b [3]) was “prevents the downregulation of SMPDL-3b”, the “binding to SMPDL-3B” value (SMPDL-3B [4]) was “found to bind SMPDL-3B” and the “CD 19 count” value (CD19+ cells; Week 0) was 360 ± 223. For the same molecule, the “CD 19 count” value (CD19+ cells; Week 0.5) was 107 ± 115, the “CD 19 count” value (CD19+ cells; Week 1) was 45 ± 31 and the “CD 19 count” value (CD19+ cells; Week 2) was 16 ± 23. The “CD 19 count” value (CD19+ cells; Week 3) was 5 ± 6 and the “CD 19 count” value (CD19+ cells; Week 4) was 6 ± 7.
